Structures can show the parent of a compound that is named as a salt.
What was measured:
physchem = details: water

CCN(CC)C(=O)C1(c2ccccc2)CC1CN (centres unmarked) [milnacipran hydrochloride]
solubility (physchem): 600 mg/mL

baquimast
solubility in water (Solubility in water): 0.23 mg/mL

— patent publication US6709675B1, “Thixotropic formulations for filling capsules” (Pierre Fabre Medicament, priority 1998, dated 2004)
